Reference: PubChem BioAssay (NCI)
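Abbreviation: GI50, concentration required for 50% inhibition of growth. Definition used: TGI = concentration required for complete inhibition of growth.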

Columns and labels:
Test in all cases: growth of human tumour cells (NCI), 384-well format
LOX IMVI melanoma = test system: LOX IMVI melanoma
HS 578T breast = test system: HS 578T breast
TK-10 renal = test system: TK-10 renal
UO-31 renal = test system: UO-31 renal
HL-60(TB) leukemia = test system: HL-60(TB) leukemia
NCI-H460 NSCLC = test system: NCI-H460 NSCLC
COLO 205 colon = test system: COLO 205 colon
RXF 393 renal = test system: RXF 393 renal
NCI-H23 lung = test system: NCI-H23 lung
SF-268 CNS = test system: SF-268 CNS
BT-549 breast = test system: BT-549 breast
SNB-19 CNS = test system: SNB-19 CNS
U251 glioblastoma = test system: U251 glioblastoma
OVCAR-3 ovarian = test system: OVCAR-3 ovarian
DU-145 prostate = test system: DU-145 prostate
HOP-62 NSCLC = test system: HOP-62 NSCLC
KM12 colon = test system: KM12 colon
SN12C renal = test system: SN12C renal
RPMI-8226 leukemia = test system: RPMI-8226 leukemia
OVCAR-5 ovarian = test system: OVCAR-5 ovarian
CCRF-CEM leukemia = test system: CCRF-CEM leukemia
SNB-75 CNS = test system: SNB-75 CNS
A498 renal = test system: A498 renal
MDA-MB-468 breast = test system: MDA-MB-468 breast
SF-539 CNS = test system: SF-539 CNS
M14 melanoma = test system: M14 melanoma
786-0 renal = test system: 786-0 renal
SK-MEL-28 melanoma = test system: SK-MEL-28 melanoma
NCI-H522 lung = test system: NCI-H522 lung
SR leukemia = test system: SR leukemia
HOP-92 NSCLC = test system: HOP-92 NSCLC
HCT-15 colon = test system: HCT-15 colon
OVCAR-8 ovarian = test system: OVCAR-8 ovarian
MOLT-4 leukemia = test system: MOLT-4 leukemia
SW-620 colon = test system: SW-620 colon
HCT-116 colon = test system: HCT-116 colon
IGROV1 ovarian = test system: IGROV1 ovarian
MALME-3M melanoma = test system: MALME-3M melanoma
SF-295 CNS = test system: SF-295 CNS
HT29 colon = test system: HT29 colon
MDA-MB-435 melanoma = test system: MDA-MB-435 melanoma
NCI/ADR-RES ovarian = test system: NCI/ADR-RES ovarian
OVCAR-4 ovarian = test system: OVCAR-4 ovarian
PC-3 prostate = test system: PC-3 prostate
A549 NSCLC = test system: A549 NSCLC
MCF7 breast = test system: MCF7 breast
EKVX NSCLC = test system: EKVX NSCLC
T-47D breast = test system: T-47D breast
ACHN renal = test system: ACHN renal
MDA-MB-231 breast = test system: MDA-MB-231 breast
SK-MEL-5 melanoma = test system: SK-MEL-5 melanoma
HCC-2998 colon = test system: HCC-2998 colon
SK-OV-3 ovarian = test system: SK-OV-3 ovarian
UACC-257 melanoma = test system: UACC-257 melanoma
NCI-H226 lung = test system: NCI-H226 lung
CAKI-1 renal = test system: CAKI-1 renal
NCI-H322M lung = test system: NCI-H322M lung
UACC-62 melanoma = test system: UACC-62 melanoma

## c1cc(CN2CCCNCCNCCCNCC2)ccc1CN1CCCNCCNCCCNCC1
LOX IMVI melanoma
  GI50: > 100 µM
  TGI: > 100 µM
HS 578T breast
  GI50: > 100 µM
  TGI: > 100 µM
TK-10 renal
  GI50: > 100 µM
  TGI: > 100 µM
UO-31 renal
  GI50: > 100 µM
  TGI: > 100 µM
HL-60(TB) leukemia
  GI50: > 100 µM
  TGI: > 100 µM
NCI-H460 NSCLC
  GI50: > 100 µM
  TGI: > 100 µM
COLO 205 colon
  GI50: > 100 µM
  TGI: > 100 µM
RXF 393 renal
  GI50: > 100 µM
  TGI: > 100 µM
NCI-H23 lung
  GI50: > 100 µM
  TGI: > 100 µM
SF-268 CNS
  GI50: > 100 µM
  TGI: > 100 µM
BT-549 breast
  GI50: > 100 µM
  TGI: > 100 µM
SNB-19 CNS
  GI50: > 100 µM
  TGI: > 100 µM
U251 glioblastoma
  GI50: > 100 µM
  TGI: > 100 µM
OVCAR-3 ovarian
  GI50: > 100 µM
  TGI: > 100 µM
DU-145 prostate
  GI50: > 100 µM
  TGI: > 100 µM
HOP-62 NSCLC
  GI50: > 100 µM
  TGI: > 100 µM
KM12 colon
  GI50: > 100 µM
  TGI: > 100 µM
SN12C renal
  GI50: > 100 µM
  TGI: > 100 µM
RPMI-8226 leukemia
  GI50: > 100 µM
  TGI: > 100 µM
OVCAR-5 ovarian
  GI50: > 100 µM
  TGI: > 100 µM
CCRF-CEM leukemia
  GI50: > 100 µM
  TGI: > 100 µM
SNB-75 CNS
  GI50: > 100 µM
  TGI: > 100 µM
A498 renal
  GI50: > 100 µM
  TGI: > 100 µM
MDA-MB-468 breast
  GI50: > 100 µM
  TGI: > 100 µM
SF-539 CNS
  GI50: > 100 µM
  TGI: > 100 µM
M14 melanoma
  GI50: > 100 µM
  TGI: > 100 µM
786-0 renal
  GI50: > 100 µM
  TGI: > 100 µM
SK-MEL-28 melanoma
  GI50: > 100 µM
  TGI: > 100 µM
NCI-H522 lung
  GI50: > 100 µM
  TGI: > 100 µM
SR leukemia
  GI50: > 100 µM
  TGI: > 100 µM
HOP-92 NSCLC
  GI50: > 100 µM
  TGI: > 100 µM
HCT-15 colon
  GI50: > 100 µM
  TGI: > 100 µM
OVCAR-8 ovarian
  GI50: > 100 µM
  TGI: > 100 µM
MOLT-4 leukemia
  GI50: > 100 µM
  TGI: > 100 µM
SW-620 colon
  GI50: > 100 µM
  TGI: > 100 µM
HCT-116 colon
  GI50: > 100 µM
  TGI: > 100 µM
IGROV1 ovarian
  GI50: > 100 µM
  TGI: > 100 µM
MALME-3M melanoma
  GI50: > 100 µM
  TGI: > 100 µM
SF-295 CNS
  GI50: > 100 µM
  TGI: > 100 µM
HT29 colon
  GI50: > 100 µM
  TGI: > 100 µM
MDA-MB-435 melanoma
  GI50: > 100 µM
  TGI: > 100 µM
NCI/ADR-RES ovarian
  GI50: > 100 µM
  TGI: > 100 µM
OVCAR-4 ovarian
  GI50: > 100 µM
  TGI: > 100 µM
PC-3 prostate
  GI50: > 100 µM
  TGI: > 100 µM
A549 NSCLC
  GI50: > 100 µM
  TGI: > 100 µM
MCF7 breast
  GI50: > 100 µM
  TGI: > 100 µM
EKVX NSCLC
  GI50: > 100 µM
  TGI: > 100 µM
T-47D breast
  GI50: > 100 µM
  TGI: > 100 µM
ACHN renal
  GI50: > 100 µM
  TGI: > 100 µM
MDA-MB-231 breast
  GI50: > 100 µM
  TGI: > 100 µM
SK-MEL-5 melanoma
  GI50: > 100 µM
  TGI: > 100 µM
HCC-2998 colon
  GI50: > 100 µM
  TGI: > 100 µM
SK-OV-3 ovarian
  GI50: > 100 µM
  TGI: > 100 µM
UACC-257 melanoma
  GI50: > 100 µM
  TGI: > 100 µM
NCI-H226 lung
  GI50: > 100 µM
  TGI: > 100 µM
CAKI-1 renal
  GI50: > 100 µM
  TGI: > 100 µM
NCI-H322M lung
  GI50: > 100 µM
  TGI: > 100 µM
UACC-62 melanoma
  GI50: > 100 µM
  TGI: > 100 µM
